In PubChem BioAssay (NCI):
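Values below derive from 48-hour exposures of cells grown in 96-well plates, with endpoints linearly interpolated between the two concentrations bracketing the appropriate inhibition level. The concentration for 50% growth inhibition is given as GI50. Definition used: TGI = concentration required for complete inhibition of growth.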

Assays:
Experiment in all cases: growth of human tumour cells (NCI), 48 h
[1] = test system: 786-0 renal
[2] = test system: CAKI-1 renal
[3] = test system: DMS 273 small cell lung
[4] = test system: KM20L2 colon
[5] = test system: MALME-3M melanoma
[6] = test system: NCI-H23 lung
[7] = test system: RXF 393 renal
[8] = test system: SK-MEL-5 melanoma
[9] = test system: A498 renal
[10] = test system: HS 578T breast

## CCC[CH2][Sn]([Cl])([Cl])[CH2]CCC
[1]
  GI50: 0.714 µM
  TGI: 2.04 µM
[2]
  GI50: 0.295 µM
  TGI: 1.44 µM
[3]
  GI50: 1.29 µM
  TGI: 3.73 µM
[4]
  GI50: 1.49 µM
  TGI: 3.01 µM
[5]
  GI50: 0.371 µM
  TGI: 1.44 µM
[6]
  GI50: 0.62 µM
  TGI: 2.21 µM
[7]
  GI50: 0.232 µM
  TGI: 0.49 µM
[8]
  GI50: 0.509 µM
  TGI: 1.55 µM

## COc1ccc(N=NC(C(=O)c2ccccc2)C(=O)c2ccccc2)cc1
[1]
  TGI: 61 µM
[9]
  TGI: > 100 µM
[2]
  TGI: > 100 µM
[3]
  TGI: 56.7 µM
[4]
  TGI: 64 µM
[5]
  TGI: 97 µM
[6]
  TGI: 65.3 µM
[8]
  TGI: 34 µM

## CCNC(=O)COc1ccc(Br)cc1Br
[1]
  TGI: > 100 µM
[9]
  TGI: > 100 µM
[2]
  TGI: > 100 µM
[3]
  TGI: > 100 µM
[4]
  TGI: > 100 µM
[5]
  TGI: > 100 µM
[6]
  TGI: > 100 µM
[7]
  TGI: > 100 µM
[8]
  TGI: > 100 µM

## CC1/C=C/[C@@]2(C)CCC(C(C)(C)O)C2C(O)C[C@](C)(O)/C=C/C1 (stereo partly drawn)
[1]
  TGI: > 100 µM
[9]
  TGI: > 100 µM
[2]
  TGI: > 100 µM
[3]
  TGI: > 100 µM
[4]
  TGI: > 100 µM
[5]
  TGI: > 100 µM
[6]
  TGI: > 100 µM
[7]
  TGI: > 100 µM
[8]
  TGI: > 100 µM

## CC(=O)N/N=C1\CC(C)(C)C2CCC1C2 (stereo not drawn)
[1]
  TGI: > 100 µM
[9]
  TGI: > 100 µM
[2]
  TGI: > 100 µM
[3]
  TGI: > 100 µM
[5]
  TGI: > 100 µM
[6]
  TGI: > 100 µM
[7]
  TGI: > 100 µM
[8]
  TGI: > 100 µM

## C=C(CC(NC(=O)c1ccc(C(CC)Cc2cnc3nc(N)nc(N)c3n2)cc1)C(=O)O)C(=O)O (stereo not drawn)
[1]
  GI50: 0.0257 µM
  TGI: 5.17 µM
[3]
  TGI: > 100 µM
[4]
  TGI: > 100 µM
[6]
  TGI: > 100 µM
[7]
  TGI: > 100 µM
[8]
  TGI: > 100 µM

## COc1ccc(NC(=O)/C(=C/c2ccccc2)C(C)=O)cc1
[1]
  TGI: 28.6 µM
[9]
  TGI: 36.7 µM
[2]
  TGI: 29.2 µM
[3]
  TGI: 30.8 µM
[4]
  TGI: 29.2 µM
[5]
  TGI: 32.3 µM
[8]
  TGI: 28.2 µM

## COc1ccc(NC(=O)CC2SC(=Nc3ccccc3C)NC2=O)c([N+](=O)[O-])c1 (stereo not drawn)
[1]
  TGI: > 100 µM
[3]
  TGI: > 100 µM
[4]
  TGI: > 100 µM
[5]
  TGI: > 100 µM
[6]
  TGI: > 100 µM

## CCC(=O)c1c(NOC2OCC(OC(C)=O)C(OC(C)=O)C2OC(C)=O)nc(OC)n(C)c1=O (stereo not drawn)
[1]
  TGI: > 100 µM
[9]
  TGI: > 100 µM
[2]
  TGI: > 100 µM
[3]
  TGI: > 100 µM
[4]
  TGI: > 100 µM
[5]
  TGI: > 100 µM
[6]
  TGI: > 100 µM
[7]
  TGI: > 100 µM
[8]
  TGI: > 100 µM

## COc1ccc(OC)c(NC(=O)CCC/C(CC(=O)c2ccc(O)c(OC)c2)=N\Nc2nnc(C)n2N)c1
[1]
  TGI: > 100 µM
[9]
  TGI: > 100 µM
[2]
  TGI: > 100 µM
[3]
  TGI: > 100 µM
[4]
  TGI: > 100 µM
[5]
  TGI: > 100 µM
[6]
  TGI: > 100 µM
[8]
  TGI: > 100 µM

## NCCSSCCN
[1]
  TGI: > 100 µM
[9]
  TGI: > 100 µM
[2]
  TGI: > 100 µM
[3]
  TGI: > 100 µM
[10]
  TGI: > 100 µM
[4]
  TGI: > 100 µM
[5]
  TGI: > 100 µM
[6]
  TGI: > 100 µM
[7]
  TGI: > 100 µM
[8]
  TGI: > 100 µM

## COC12CCC(=O)C=C1c1ccccc1N2C(C)=O (stereo not drawn)
[1]
  TGI: > 100 µM
[9]
  TGI: > 100 µM
[2]
  TGI: > 100 µM
[3]
  TGI: > 100 µM
[4]
  TGI: > 100 µM
[6]
  TGI: > 100 µM
[7]
  TGI: > 100 µM

## CC1=CC(=O)CC2(C)CC[C@@H]3C[C@]12OC3(C)C (stereo partly drawn)
[1]
  TGI: > 100 µM
[9]
  TGI: > 100 µM
[2]
  TGI: > 100 µM
[3]
  TGI: > 100 µM
[4]
  TGI: > 100 µM
[5]
  TGI: > 100 µM
[6]
  TGI: > 100 µM
[7]
  TGI: > 100 µM
[8]
  TGI: > 100 µM

## C=CCNc1nc2c(s1)C(=O)c1ccccc1C2=O
[1]
  TGI: 28.5 µM
[9]
  TGI: 34 µM
[2]
  TGI: 26.8 µM
[3]
  TGI: 28.2 µM
[10]
  TGI: > 100 µM
[4]
  TGI: 33.5 µM
[5]
  TGI: 25.6 µM
[6]
  TGI: 21.8 µM
[7]
  TGI: 35.4 µM
[8]
  TGI: 3.1 µM

## CC1=Nc2c(ccc3c2C(=O)c2ccccc2C3=O)NC(c2cccc3c2CCC3)C1 (stereo not drawn)
[1]
  TGI: > 100 µM
[9]
  TGI: > 100 µM
[2]
  TGI: > 96.8 µM
[3]
  TGI: > 100 µM
[4]
  TGI: > 100 µM
[5]
  TGI: > 100 µM
[6]
  TGI: > 100 µM
[7]
  TGI: > 100 µM
[8]
  TGI: > 100 µM

## CC(C)(C)c1cc(C(O)(C(F)(F)F)C(F)(F)F)c2c(c1)C(C(F)(F)F)(C(F)(F)F)OC(C)(C(C)(C)C)N2 (stereo not drawn)
[1]
  TGI: 11.6 µM
[3]
  TGI: 10.8 µM
[4]
  TGI: > 100 µM
[5]
  TGI: 78.2 µM
[6]
  TGI: 7.41 µM
[7]
  TGI: 16.2 µM
[8]
  TGI: 4.7 µM

## Cc1ccc(NC(=O)CCc2nc(N)nc(N)c2-c2ccccc2)cc1C
[1]
  TGI: > 100 µM
[9]
  TGI: > 100 µM
[2]
  TGI: > 100 µM
[3]
  TGI: > 100 µM
[4]
  TGI: > 100 µM
[5]
  TGI: > 100 µM
[6]
  TGI: > 100 µM
[8]
  TGI: > 100 µM

## O=c1/c(=C/c2ccccc2[N+](=O)[O-])sc2nc3ccccc3n12
[1]
  TGI: > 46.4 µM
[9]
  TGI: > 41.6 µM
[2]
  TGI: > 100 µM
[3]
  TGI: > 46.4 µM
[4]
  TGI: > 100 µM
[5]
  TGI: > 46.4 µM
[6]
  TGI: > 46.4 µM
[7]
  TGI: 41.9 µM
[8]
  TGI: > 46.4 µM

## COC(=O)/C=C(C)/C=C/C1OC(C)OCC1O (stereo not drawn)
[1]
  TGI: > 100 µM
[9]
  TGI: > 100 µM
[2]
  TGI: > 100 µM
[3]
  TGI: > 100 µM
[4]
  TGI: > 100 µM
[5]
  TGI: > 100 µM
[6]
  TGI: > 100 µM
[8]
  TGI: > 100 µM

## CCOC(=O)C1=C(Nc2ccc(Cl)cc2Cl)OCC1=O
[1]
  TGI: > 100 µM
[2]
  TGI: > 100 µM
[3]
  TGI: > 100 µM
[4]
  TGI: > 100 µM
[5]
  TGI: > 100 µM
[6]
  TGI: > 100 µM

## CN(C)CCNc1ccc(CO)c2sc3ccc(O)cc3c(=O)c12
[1]
  TGI: 9.37 µM
[9]
  TGI: 20.4 µM
[2]
  TGI: > 25.9 µM
[3]
  TGI: 9.97 µM
[4]
  TGI: 22.7 µM
[5]
  TGI: 9.81 µM
[6]
  TGI: 4.14 µM
[7]
  TGI: 4.44 µM
[8]
  TGI: 8.37 µM
